The values that follow come from US20260274892A1, “MACROCYCLIC BROAD SPECTRUM ANTIBIOTICS” (RQx Pharmaceuticals, Inc., priority 2017, published 2026).

Test [1] relates to Methicillin Resistant Staphylococcus aureus strain USA 200. Briefly: Minimum inhibitory concentration (MIC), CLSI broth micro-dilution, S. aureus. To be noted: Staphylococcus aureus, MRSA / USA200; Table 6; MRSA USA 200; cation adjusted Mueller Hinton Broth + 0.002% Tween-80; 35° C., 22 hours. The test is classed as cell-based. The method in brief: (§1)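 Colonies grown 20 h at 35° C on Trypticase Soy agar (MRSA) or Luria agar (E. coli) were suspended in cation-adjusted Mueller Hinton broth with 0.002% Tween-80. Suspensions were added at OD600 0.0005 to 10-point twofold compound dilutions, then incubated 22 h at 35° C.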

Test [2] deals with Escherichia coli ATCC 25922. Briefly: Minimum inhibitory concentration (MIC), CLSI broth micro-dilution, E. coli. The test is classed as cell-based. To be noted: Escherichia coli, ATCC25922, 22 h, Table 6, cation adjusted Mueller Hinton Broth + 0.002% Tween-80, 35° C. In short, it runs like this: as §1

Regarding `CCCCCCc1cnc2cc(C(=O)N[C@@H](CCN)C(=O)N(C)[C@@H]3C(=O)N[C@@H](C)C(=O)N[C@H](C(=O)NCC#N)Cc4ccc(OCCN)c(c4)-c4cc3ccc4OCCN)c(C)nc2c1` (racemic) [Compound 398, rac-(8S,11S,14S)-3,18-bis(2-aminoethoxy)-N-(cyanomethyl)-11-methyl-14-[methyl-[rac-(2S)-4-amino-2-[(7-hexyl-2-methyl-1,5-naphthyridine-3-carbonyl)amino]butanoyl]amino]-10,13-dioxo-9,12-diazatricyclo[13.3.1.12,6]icosa-1(18),2(20),3,5,15(19),16-hexaene-8-carboxamide], the MIC was determined as 0.025 µM in test [1] and 0.27 µM in test [2].
For `CCCCCCc1ccc2nc(C)c(C(=O)N[C@@H](CCN)C(=O)N(C)[C@@H]3C(=O)N[C@@H](C)C(=O)N[C@H](C(=O)NCC#N)Cc4ccc(OCCN)c(c4)-c4cc3ccc4OCCN)c(C)c2c1` (racemic) [Compound 399, rac-(8S,11S,14S)-3,18-bis(2-aminoethoxy)-N-(cyanomethyl)-11-methyl-14-[methyl-[rac-(2S)-4-amino-2-[(6-hexyl-2,4-dimethyl-quinoline-3-carbonyl)amino]butanoyl]amino]-10,13-dioxo-9,12-diazatricyclo[13.3.1.12,6]icosa-1(18),2(20),3,5,15(19),16-hexaene-8-carboxamide], in that order: 0.0078 µM and 0.5 µM.
For `CCCCCCc1ccc2cc(C)c(C(=O)N[C@@H](CCN)C(=O)N(C)[C@@H]3C(=O)N[C@@H](C)C(=O)N[C@H](C(=O)NCC#N)Cc4ccc(OCCN)c(c4)-c4cc3ccc4OCCN)cc2c1` (racemic) [Compound 400, rac-(8S,11S,14S)-3,18-bis(2-aminoethoxy)-N-(cyanomethyl)-11-methyl-14-[methyl-[rac-(2S)-4-amino-2-[(7-hexyl-3-methyl-naphthalene-2-carbonyl)amino]butanoyl]amino]-10,13-dioxo-9,12-diazatricyclo[13.3.1.12,6]icosa-1(18),2(20),3,5,15(19),16-hexaene-8-carboxamide], in that order: 0.047 µM and 0.25 µM.
Consider `Cc1nc(-c2ccc(C(C)(C)C)cc2)c(Br)cc1C(=O)N[C@@H](CCN)C(=O)N(C)[C@@H]1C(=O)N[C@@H](C)C(=O)N[C@H](C(=O)NCC#N)Cc2ccc(OCCN)c(c2)-c2cc1ccc2OCCN` (racemic) [Compound 401, rac-(8S,11S,14S)-3,18-bis(2-aminoethoxy)-N-(cyanomethyl)-11-methyl-14-[methyl-[rac-(2S)-4-amino-2-[[5-bromo-6-(4-tert-butylphenyl)-2-methyl-pyridine-3-carbonyl]amino]butanoyl]amino]-10,13-dioxo-9,12-diazatricyclo[13.3.1.12,6]icosa-1(18),2(20),3,5,15(19),16-hexaene-8-carboxamide], for which the MIC in test [1] was determined as 0.016 µM; in test [2], 0.25 µM.
For `Cc1cc(C(=O)N[C@@H](CCN)C(=O)N(C)[C@@H]2C(=O)N[C@@H](C)C(=O)N[C@H](C(=O)NCC#N)Cc3ccc(OCCN)c(c3)-c3cc2ccc3OCCN)c(C)nc1-c1ccc(C(C)(C)C)cc1` (racemic) [Compound 402, rac-(8S,11S,14S)-3,18-bis(2-aminoethoxy)-N-(cyanomethyl)-11-methyl-14-[methyl-[rac-(2S)-4-amino-2-[[6-(4-tert-butylphenyl)-2,5-dimethyl-pyridine-3-carbonyl]amino]butanoyl]amino]-10,13-dioxo-9,12-diazatricyclo[13.3.1.12,6]icosa-1(18),2(20),3,5,15(19),16-hexaene-8-carboxamide], in that order: 0.031 µM and 0.38 µM.
For `COc1cc(C(=O)N[C@@H](CCN)C(=O)N(C)[C@@H]2C(=O)N[C@@H](C)C(=O)N[C@H](C(=O)NCC#N)Cc3ccc(OCCN)c(c3)-c3cc2ccc3OCCN)c(C)nc1-c1ccc(C(C)(C)C)cc1` (racemic) [Compound 403, rac-(8S,11S,14S)-3,18-bis(2-aminoethoxy)-N-(cyanomethyl)-11-methyl-14-[methyl-[rac-(2S)-4-amino-2-[[6-(4-tert-butylphenyl)-5-methoxy-2-methyl-pyridine-3-carbonyl]amino]butanoyl]amino]-10,13-dioxo-9,12-diazatricyclo[13.3.1.12,6]icosa-1(18),2(20),3,5,15(19),16-hexaene-8-carboxamide], in that order: 0.016 µM and 0.5 µM.
As for `Cc1nc(-c2ccc(C(C)(C)C)cc2)c(O)cc1C(=O)N[C@@H](CCN)C(=O)N(C)[C@@H]1C(=O)N[C@@H](C)C(=O)N[C@H](C(=O)NCC#N)Cc2ccc(OCCN)c(c2)-c2cc1ccc2OCCN` (racemic) [Compound 404, rac-(8S,11S,14S)-3,18-bis(2-aminoethoxy)-N-(cyanomethyl)-11-methyl-14-[methyl-[rac-(2S)-4-amino-2-[[6-(4-tert-butylphenyl)-5-hydroxy-2-methyl-pyridine-3-carbonyl]amino]butanoyl]amino]-10,13-dioxo-9,12-diazatricyclo[13.3.1.12,6]icosa-1(18),2(20),3,5,15(19),16-hexaene-8-carboxamide], the MIC is 0.094 µM in test [1] and 0.38 µM in test [2].
Regarding `Cc1nc(-c2ccc(C(C)(C)C)cc2)c(N)cc1C(=O)N[C@@H](CCN)C(=O)N(C)[C@@H]1C(=O)N[C@@H](C)C(=O)N[C@H](C(=O)NCC#N)Cc2ccc(OCCN)c(c2)-c2cc1ccc2OCCN` (racemic) [Compound 405, rac-(8S,11S,14S)-3,18-bis(2-aminoethoxy)-N-(cyanomethyl)-11-methyl-14-[methyl-[rac-(2S)-4-amino-2-[[5-amino-6-(4-tert-butylphenyl)-2-methyl-pyridine-3-carbonyl]amino]butanoyl]amino]-10,13-dioxo-9,12-diazatricyclo[13.3.1.12,6]icosa-1(18),2(20),3,5,15(19),16-hexaene-8-carboxamide], the minimal inhibitory concentration (MIC) in test [1] came to 0.063 µM; in test [2], 0.38 µM.
For `Cc1nc(-c2ccc(C(C)(C)C)cc2)c([N+](=O)[O-])cc1C(=O)N[C@@H](CCN)C(=O)N(C)[C@@H]1C(=O)N[C@@H](C)C(=O)N[C@H](C(=O)NCC#N)Cc2ccc(OCCN)c(c2)-c2cc1ccc2OCCN` (racemic) [Compound 406, rac-(8S,11S,14S)-3,18-bis(2-aminoethoxy)-N-(cyanomethyl)-11-methyl-14-[methyl-[rac-(2S)-4-amino-2-[[6-(4-tert-butylphenyl)-2-methyl-5-nitro-pyridine-3-carbonyl]amino]butanoyl]amino]-10,13-dioxo-9,12-diazatricyclo[13.3.1.12,6]icosa-1(18),2(20),3,5,15(19),16-hexaene-8-carboxamide], in that order: 0.023 µM and 0.25 µM.
For `Cc1nc(-c2ccc(C(C)(C)C)cc2)c(Cl)cc1C(=O)N[C@@H](CCN)C(=O)N(C)[C@@H]1C(=O)N[C@@H](C)C(=O)N[C@H](C(=O)NCC#N)Cc2ccc(OCCN)c(c2)-c2cc1ccc2OCCN` (racemic) [Compound 407, rac-(8S,11S,14S)-3,18-bis(2-aminoethoxy)-N-(cyanomethyl)-11-methyl-14-[methyl-[rac-(2S)-4-amino-2-[[6-(4-tert-butylphenyl)-5-chloro-2-methyl-pyridine-3-carbonyl]amino]butanoyl]amino]-10,13-dioxo-9,12-diazatricyclo[13.3.1.12,6]icosa-1(18),2(20),3,5,15(19),16-hexaene-8-carboxamide], the results for the MIC in test [1] and in test [2] were 0.016 µM and 0.13 µM, respectively.
Consider `Cc1nc(-c2ccc(C(C)(C)C)cc2)c(N(C)C)cc1C(=O)N[C@@H](CCN)C(=O)N(C)[C@@H]1C(=O)N[C@@H](C)C(=O)N[C@H](C(=O)NCC#N)Cc2ccc(OCCN)c(c2)-c2cc1ccc2OCCN` (racemic) [Compound 408, rac-(8S,11S,14S)-3,18-bis(2-aminoethoxy)-N-(cyanomethyl)-11-methyl-14-[methyl-[rac-(2S)-4-amino-2-[[6-(4-tert-butylphenyl)-5-(dimethylamino)-2-methyl-pyridine-3-carbonyl]amino]butanoyl]amino]-10,13-dioxo-9,12-diazatricyclo[13.3.1.12,6]icosa-1(18),2(20),3,5,15(19),16-hexaene-8-carboxamide], for which the values for the minimal inhibitory concentration (MIC) in test [1] and in test [2] were 0.023 µM and 0.38 µM, respectively.
On to `CNc1cc(C(=O)N[C@@H](CCN)C(=O)N(C)[C@@H]2C(=O)N[C@@H](C)C(=O)N[C@H](C(=O)NCC#N)Cc3ccc(OCCN)c(c3)-c3cc2ccc3OCCN)c(C)nc1-c1ccc(C(C)(C)C)cc1` (racemic) [Compound 409, rac-(8S,11S,14S)-3,18-bis(2-aminoethoxy)-N-(cyanomethyl)-11-methyl-14-[methyl-[rac-(2S)-4-amino-2-[[6-(4-tert-butylphenyl)-2-methyl-5-(methylamino)pyridine-3-carbonyl]amino]butanoyl]amino]-10,13-dioxo-9,12-diazatricyclo[13.3.1.12,6]icosa-1(18),2(20),3,5,15(19),16-hexaene-8-carboxamide], for which the MIC in test [1] amounted to 0.13 µM; in test [2], 0.75 µM.
For `C[C@@H]1NC(=O)[C@@H](N(C)C(=O)[C@H](CCN)NC(=O)c2cnc(-c3ccc(C(C)(C)C)cc3)cc2N)c2ccc(OCCN)c(c2)-c2cc(ccc2OCCN)C[C@@H](C(=O)NCC#N)NC1=O` (racemic) [Compound 411, rac-(8S,11S,14S)-3,18-bis(2-aminoethoxy)-N-(cyanomethyl)-11-methyl-14-[methyl-[rac-(2S)-4-amino-2-[[4-amino-6-(4-tert-butylphenyl)pyridine-3-carbonyl]amino]butanoyl]amino]-10,13-dioxo-9,12-diazatricyclo[13.3.1.12,6]icosa-1(18),2(20),3,5,15(19),16-hexaene-8-carboxamide], in that order: 0.016 µM and 0.25 µM.
